In patent US10787447B2, “Pharmaceutical compounds” (Heptares Therapeutics Limited, priority 2018, dated 2020):

Legend:
Assay type in all cases: cell-based
[1] = target: T1, human muscarinic M1 receptor (Homo sapiens, UniProt P11229); experiment: Alphascreen Surefire phospho-ERK1/2 functional assay, M1; conditions: for % Emax cf. ACh, M1: CHO cells stably expressing human M1; for EC50: pEC50 M1, CHO cells stably expressing human M1, phospho-ERK1/2
T1 sequence (P11229 1-460): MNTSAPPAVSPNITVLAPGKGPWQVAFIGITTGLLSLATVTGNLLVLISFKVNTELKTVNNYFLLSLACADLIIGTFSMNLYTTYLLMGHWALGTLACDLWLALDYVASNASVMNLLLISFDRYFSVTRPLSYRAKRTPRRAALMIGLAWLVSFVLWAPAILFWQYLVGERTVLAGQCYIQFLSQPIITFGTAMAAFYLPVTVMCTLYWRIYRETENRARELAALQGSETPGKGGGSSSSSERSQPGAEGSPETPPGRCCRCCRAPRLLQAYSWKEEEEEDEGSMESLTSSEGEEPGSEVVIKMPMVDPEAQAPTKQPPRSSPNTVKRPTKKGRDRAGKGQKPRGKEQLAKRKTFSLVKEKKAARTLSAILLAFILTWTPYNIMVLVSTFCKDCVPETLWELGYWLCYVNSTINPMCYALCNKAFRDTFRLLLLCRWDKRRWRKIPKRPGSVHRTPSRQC
Procedure, shortened: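 Stably transfected CHO cells, serum-starved overnight, then exposed to agonist for 5 min at 37 °C. Cells lysed and phospho-ERK1/2 measured by AlphaScreen SureFire.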

[2] = target: T2, human muscarinic M2 receptor (Homo sapiens, UniProt P08172); experiment: Alphascreen Surefire phospho-ERK1/2 functional assay, M2; conditions: for % Emax cf. ACh, M2: CHO cells stably expressing human M2, Emax relative to ACh; for EC50: pEC50 M2, CHO cells stably expressing human M2, phospho-ERK1/2
T2 sequence (P08172 1-466): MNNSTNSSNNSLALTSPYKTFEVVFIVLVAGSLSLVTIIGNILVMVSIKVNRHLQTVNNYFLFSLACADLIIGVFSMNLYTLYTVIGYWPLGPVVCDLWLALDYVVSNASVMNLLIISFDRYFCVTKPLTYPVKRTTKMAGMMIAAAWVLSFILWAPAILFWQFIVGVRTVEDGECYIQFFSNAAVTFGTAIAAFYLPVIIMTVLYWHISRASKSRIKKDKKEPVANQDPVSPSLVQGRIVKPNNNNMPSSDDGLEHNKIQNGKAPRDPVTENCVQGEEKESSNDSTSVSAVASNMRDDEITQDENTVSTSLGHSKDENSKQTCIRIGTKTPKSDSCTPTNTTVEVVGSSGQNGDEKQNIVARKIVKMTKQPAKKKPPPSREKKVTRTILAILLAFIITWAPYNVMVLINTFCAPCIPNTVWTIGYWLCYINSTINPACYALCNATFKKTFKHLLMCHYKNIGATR
Procedure, shortened: (§1)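 CHO cells stably expressing human M1, M2, M3 or M4 receptor, serum-starved overnight, then stimulated with agonist for 5 min at 37 °C. Cells lysed for 15 min and phospho-ERK1/2 detected in the lysate by AlphaScreen SureFire.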

[3] = target: T3, human muscarinic M3 receptor (Homo sapiens, UniProt P20309); experiment: Alphascreen Surefire phospho-ERK1/2 functional assay, M3; conditions: for % Emax cf. ACh, M3: CHO cells stably expressing human M3; for EC50: pEC50 M3, CHO cells stably expressing human M3, phospho-ERK1/2
T3 construct: expressed in transfected cells
T3 sequence (P20309 whole entry): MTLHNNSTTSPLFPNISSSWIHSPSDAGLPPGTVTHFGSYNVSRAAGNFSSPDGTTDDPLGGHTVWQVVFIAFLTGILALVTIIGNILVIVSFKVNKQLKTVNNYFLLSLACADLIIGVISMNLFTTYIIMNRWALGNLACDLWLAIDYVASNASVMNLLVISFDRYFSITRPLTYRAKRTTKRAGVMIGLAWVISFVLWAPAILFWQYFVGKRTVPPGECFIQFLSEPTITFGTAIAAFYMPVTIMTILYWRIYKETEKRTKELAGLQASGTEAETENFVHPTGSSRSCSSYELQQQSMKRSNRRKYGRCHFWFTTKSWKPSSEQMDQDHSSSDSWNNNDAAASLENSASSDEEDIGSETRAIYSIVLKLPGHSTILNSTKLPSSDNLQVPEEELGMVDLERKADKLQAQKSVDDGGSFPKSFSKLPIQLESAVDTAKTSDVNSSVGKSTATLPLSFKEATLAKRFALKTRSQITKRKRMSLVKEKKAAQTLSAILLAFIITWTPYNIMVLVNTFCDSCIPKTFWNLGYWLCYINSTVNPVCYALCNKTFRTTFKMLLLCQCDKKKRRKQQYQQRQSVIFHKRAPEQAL
Procedure, shortened: as §1

[4] = target: T4, human muscarinic M4 receptor (Homo sapiens, UniProt P08173); experiment: Alphascreen Surefire phospho-ERK1/2 functional assay, M4; conditions: for % Emax cf. ACh, M4: CHO cells stably expressing human M4, Emax relative to ACh; for EC50: pEC50 M4, CHO cells stably expressing human M4, phospho-ERK1/2
T4 sequence (P08173 1-479): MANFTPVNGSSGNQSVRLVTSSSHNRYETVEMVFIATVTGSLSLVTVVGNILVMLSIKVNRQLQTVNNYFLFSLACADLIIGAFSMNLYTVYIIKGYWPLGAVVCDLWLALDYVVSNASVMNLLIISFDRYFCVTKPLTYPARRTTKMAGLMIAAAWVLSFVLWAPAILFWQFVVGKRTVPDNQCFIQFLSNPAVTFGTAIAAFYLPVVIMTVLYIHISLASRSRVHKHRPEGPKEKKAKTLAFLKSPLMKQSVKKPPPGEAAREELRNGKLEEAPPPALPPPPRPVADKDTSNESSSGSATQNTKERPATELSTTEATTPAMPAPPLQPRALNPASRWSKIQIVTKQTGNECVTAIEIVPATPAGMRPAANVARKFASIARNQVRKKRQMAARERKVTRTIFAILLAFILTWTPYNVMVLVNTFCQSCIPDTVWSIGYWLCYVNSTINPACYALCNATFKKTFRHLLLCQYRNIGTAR
Procedure, shortened: as §1

[5] = Emax relative to ACh, listed as 6-3 Isomer 1
[6] = Emax relative to ACh, listed as 6-3 Isomer 2
[7] = Emax relative to ACh, listed as 6-6 Isomer 1
[8] = Emax relative to ACh, listed as 6-6 Isomer 2

SMILES: CCOC(=O)N1C2COCC1CC(N1CCC(N(CC3(C)CC3)C(C)=O)CC1)C2 (single isomer, unassigned) [Example 6-3 Isomer 1, Ethyl 7-(4-{acetyl[(1-methylcyclopropyl)methyl]amino}piperidin-1-yl)-3-oxa-9-azabicyclo[3.3.1]nonane-9-carboxylate]
- % Emax cf. ACh, M1 [1, 5]: 124%
- EC50 [1]: 120 nM
- % Emax cf. ACh, M2 ([2]; listed as 6-3 Isomer 1): 36%
- EC50 [2]: 355 nM
- % Emax cf. ACh, M3 [3, 5]: 390%
- EC50 [3]: > 20000 nM
- % Emax cf. ACh, M4 ([4]; listed as 6-3 Isomer 1): 93%
- EC50 [4]: 60.3 nM

SMILES: CCOC(=O)N1C2COCC1CC(N1CCC(N(CC3(C)CC3)C(C)=O)CC1)C2 (single isomer, unassigned) [Example 6-3 Isomer 2]
- % Emax cf. ACh, M1 [1, 6]: 90%
- EC50 [1]: 195 nM
- % Emax cf. ACh, M2 ([2]; listed as 6-3 Isomer 2): 11%
- EC50 [2]: > 20000 nM
- % Emax cf. ACh, M3 [3, 6]: 9%
- % Emax cf. ACh, M4 ([4]; listed as 6-3 Isomer 2): 44%
- EC50 [4]: 389 nM

SMILES: CCOC(=O)N1C2COCC1CC(N1CCC(N(CC3(C)CCC3)C(C)=O)CC1)C2 (single isomer, unassigned) [Example 6-4 Isomer 2, Ethyl 7-(4-{acetyl[(1-methylcyclobutyl)methyl]amino}piperidin-1-yl)-3-oxa-9-azabicyclo[3.3.1]nonane-9-carboxylate]
- % Emax cf. ACh, M1 ([1]; Emax relative to ACh, listed as 6-4 Isomer 2): 72%
- EC50 [1]: 33.9 nM
- % Emax cf. ACh, M2 ([2]; listed as 6-4 Isomer 2): 15%
- EC50 [2]: > 20000 nM
- Emax ([3]; CHO, read-out: % Emax cf. ACh, M3, CHO cells stably expressing human M3, Emax relative to ACh): 19%
- EC50 [3]: > 20000 nM
- % Emax cf. ACh, M4 ([4]; listed as 6-4 Isomer 2): 38%
- EC50 [4]: 204 nM

SMILES: CCOC(=O)N1C2COCC1CC(N1CCC(N(Cc3ccccc3)C(C)=O)CC1)C2 (single isomer, unassigned) [Example 6-5 Isomer 1, Ethyl 7-{4-[acetyl(benzyl)amino]piperidin-1-yl}-3-oxa-9-azabicyclo[3.3.1]nonane-9-carboxylate]
- Emax ([1]; CHO, read-out: % Emax cf. ACh, M1, CHO cells stably expressing human M1, Emax relative to ACh): 92%
- EC50 [1]: 166 nM
- % Emax cf. ACh, M2 ([2]; listed as 6-5 Isomer 1): 11%
- EC50 [2]: > 20000 nM
- % Emax cf. ACh, M3 ([3]; Emax relative to ACh, listed as 6-5 Isomer 1): 13%
- EC50 [3]: > 20000 nM
- % Emax cf. ACh, M4 ([4]; listed as 6-5 Isomer 1): 50%
- EC50 [4]: 302 nM

SMILES: CCOC(=O)N1C2COCC1CC(N1CCC(N(Cc3ccccc3)C(C)=O)CC1)C2 (single isomer, unassigned) [Example 6-5 Isomer 2, Ethyl 7-{4-[acetyl(benzyl)amino]piperidin-1-yl}-3-oxa-9-azabicyclo[3.3.1]nonane-9-carboxylate]
- % Emax cf. ACh, M1 ([1]; Emax relative to ACh): 91%
- EC50 [1]: 15.8 nM
- % Emax cf. ACh, M2 ([2]; listed as 6-5 Isomer 2): 68%
- EC50 [2]: 2340 nM
- % Emax cf. ACh, M3 ([3]; Emax relative to ACh, listed as 6-5 Isomer 2): 83%
- EC50 [3]: 2820 nM
- % Emax cf. ACh, M4 ([4]; listed as 6-5 Isomer 2): 73%
- EC50 [4]: 145 nM

SMILES: CCOC(=O)N1C2COCC1CC(N1CCC(N3CCCCC3=O)CC1)C2 (single isomer, unassigned) [Example 6-6 Isomer 1, Ethyl 7-(2-oxo-1,4′-bipiperidin-1′-yl)-3-oxa-9-azabicyclo[3.3.1]nonane-9-carboxylate]
- % Emax cf. ACh, M1 [1, 7]: 103%
- EC50 [1]: 251 nM
- % Emax cf. ACh, M2 ([2]; listed as 6-6 Isomer 1): 60%
- EC50 [2]: 339 nM
- % Emax cf. ACh, M3 [3, 7]: 7%
- EC50 [3]: > 20000 nM
- % Emax cf. ACh, M4 ([4]; listed as 6-6 Isomer 1): 109%
- EC50 [4]: 19.1 nM

SMILES: CCOC(=O)N1C2COCC1CC(N1CCC(N3CCCCC3=O)CC1)C2 (single isomer, unassigned) [Example 6-6 Isomer 2, Ethyl 7-(2-oxo-1,4′-bipiperidin-1′-yl)-3-oxa-9-azabicyclo[3.3.1]nonane-9-carboxylate]
- % Emax cf. ACh, M1 [1, 8]: 50%
- EC50 [1]: 977 nM
- % Emax cf. ACh, M2 ([2]; listed as 6-6 Isomer 2): 6%
- EC50 [2]: > 20000 nM
- % Emax cf. ACh, M3 [3, 8]: 3%
- % Emax cf. ACh, M4 ([4]; listed as 6-6 Isomer 2): 48%
- EC50 [4]: 81.3 nM
